In patent publication US11753397B2, “Cereblon binders for the degradation of ikaros” (C4 Therapeutics, Inc., priority 2018, dated 2023):

Test system: NCIH929.1 cells
Assay: Cell viability assay (CellTiter-Glo 2.0, ATP quantification)
Assay type: cell-based
Conditions: NCIH929.1 cell viability, CellTiter-Glo 2.0, 96 hr incubation, top concentration 1 μM
Method: Example 59. Cell Viability Assay
RPMI 1640 medium, fetal bovine serum (FBS) and 2-mercaptoethanol were purchased from Gibco (Grand Island, N.Y., USA). CellTiter-Glo® 2.0 Assay was purchased from Promega (Madison, Wis., USA). NCIH929.1 cell line was purchased from ATCC (Manassas, Va., USA). Cell culture flasks and 384-well microplates were acquired from VWR (Radnor, Pa., USA).
NCIH929.1 cell viability was determined based on quantification of ATP using CellTiter-Glo® 2.0 luminescent Assay kit, which signals the presence of metabolically-active cells. Briefly, the test compound was added to 384-well plates at a top concentration of 1 μM with 10 points, half log titration in duplicates. NCIH929.1 cells were seeded into the 384-well plates in RPMI medium containing 10% FBS and 0.05 mM 2-mercaptoethanol at a cell density of 750 cells per well. Cells treated in the absence of the test compound were the negative control and cells treated in the absence of CellTiter-Glo® 2.0 were the positive control. At the same day of compound treatment, CellTiter-Glo® 2.0 was added to a plate with cells treated in the absence of the test compound to establish Cytostatic control value (CT0). Cells treated with the test compound were incubated at 37° C. with 5% CO2 for 96 hr. CellTiter-Glo reagent was then added to the cells and luminescence was acquired on EnVision™ Multilabel Reader (PerkinElmer, Santa Clara, Calif., USA).

Structure (SMILES)	GI50
O=C1CCC(N2C(=O)c3cccc(NCc4cnn(C5CCN(C(=O)N6CCCCC6)CC5)c4)c3C2=O)C(=O)N1 (centres unmarked) [Compound 88, 2-(2,6-dioxopiperidin-3-yl)-4-(((1-(1-(piperidine-1-carbonyl)piperidin-4-yl)-1H-pyrazol-4-yl)methyl)amino)isoindoline-1,3-dione]	< 100 nM
COC1(C(=O)N2CCC(n3cc(CNc4cccc5c4C(=O)N(C4CCC(=O)NC4=O)C5=O)cn3)CC2)CCC1 (centres unmarked) [Compound 82, 2-(2,6-dioxopiperidin-3-yl)-4-(((1-(1-(1-methoxycyclobutane-1-carbonyl)piperidin-4-yl)-1H-pyrazol-4-yl)methyl)amino)isoindoline-1,3-dione]	< 100 nM
O=C1CCC(N2C(=O)c3cccc(NCc4cnn(C5CCN(C(=O)C6(C#CC7CC7)CCC6)CC5)c4)c3C2=O)C(=O)N1 (centres unmarked) [Compound 205, 4-({1-[1-(1-Cyclopropylethynyl-cyclobutanecarbonyl)-piperidin-4-yl]-1H-pyrazol-4-yl-methyl}-amino)-2-(2,6-dioxo-piperidin-3-yl)-isoindole-1,3-dione]	< 100 nM
CC1(CN2CCC(n3cc(CNc4cccc5c4C(=O)N(C4CCC(=O)NC4=O)C5=O)cn3)CC2)CCC1 (centres unmarked) [Compound 139, 2-(2,6-Dioxo-piperidin-3-yl)-4-({1-[1-(1-methyl-cyclobutylmethyl)-piperidin-4-yl]-1H-pyrazol-4-ylmethyl}-amino)-isoindole-1,3-dione]	< 100 nM
CC(C)C(=O)N1CCC(n2cc(CNc3cccc4c3C(=O)N(C3CCC(=O)NC3=O)C4=O)cn2)CC1 (centres unmarked) [Compound 9, 2-(2,6-dioxopiperidin-3-yl)-4-(((1-(1-isobutyrylpiperidin-4-yl)-1H-pyrazol-4-yl)methyl)amino)isoindoline-1,3-dione]	< 100 nM
CCCCC(=O)N1CCC(n2cc(CNc3cccc4c3C(=O)N(C3CCC(=O)NC3=O)C4=O)cn2)CC1 (centres unmarked) [Compound 40, 2-(2,6-dioxopiperidin-3-yl)-4-(((1-(1-pentanoylpiperidin-4-yl)-1H-pyrazol-4-yl)methyl)amino)isoindoline-1,3-dione]	< 100 nM
Cc1cccc2c(CC(=O)N3CCC(n4cc(CNc5cccc6c5C(=O)N(C5CCC(=O)NC5=O)C6=O)cn4)CC3)noc12 (centres unmarked) [Compound 104, 2-(2,6-dioxopiperidin-3-yl)-4-(((1-(1-(2-(7-methylbenzo[d]isoxazol-3-yl)acetyl)piperidin-4-yl)-1H-pyrazol-4-yl)methyl)amino)isoindoline-1,3-dione]	< 1 nM
O=C1CCC(N2C(=O)c3cccc(NCc4cnn(C5CCCC5)c4)c3C2=O)C(=O)N1 (centres unmarked) [Compound 151, 4-[(1-cyclopentylpyrazol-4-yl)methylamino]-2-(2,6-dioxo-3-piperidyl)isoindoline-1,3-dione]	< 100 nM
O=C1CCC(N2C(=O)c3cccc(NCc4cnn(C5CCN(C(=O)C6CCN(C(=O)C7CCCC7)CC6)CC5)c4)c3C2=O)C(=O)N1 (centres unmarked) [Compound 107, 4-(((1-(1-(1-(cyclopentanecarbonyl)piperidine-4-carbonyl)piperidin-4-yl)-1H-pyrazol-4-yl)methyl)amino)-2-(2,6-dioxopiperidin-3-yl)isoindoline-1,3-dione]	< 100 nM
O=C1CCC(N2C(=O)c3cccc(NCc4cnn(C5CCN(C(=O)C6CCN(c7ccccn7)CC6)CC5)c4)c3C2=O)C(=O)N1 (centres unmarked) [Compound 100, 2-(2,6-dioxopiperidin-3-yl)-4-(((1-(1-(1-(pyridin-2-yl)piperidine-4-carbonyl)piperidin-4-yl)-1H-pyrazol-4-yl)methyl)amino)isoindoline-1,3-dione]	< 1 nM
CCC1(C(=O)N2CCC(n3cc(CNc4cccc5c4C(=O)N(C4CCC(=O)NC4=O)C5=O)cn3)CC2)CCC1 (centres unmarked) [Compound 86, 2-(2,6-dioxopiperidin-3-yl)-4-(((1-(1-(1-ethylcyclobutane-1-carbonyl)piperidin-4-yl)-1H-pyrazol-4-yl)methyl)amino)isoindoline-1,3-dione]	< 100 nM
CC1(C(=O)N2CCC(n3cc(CNc4cccc5c4C(=O)N(C4CCC(=O)NC4=O)C5=O)cn3)CC2)CCCCC1 (centres unmarked) [Compound 63, 2-(2,6-dioxopiperidin-3-yl)-4-(((1-(1-(1-methylcyclohexane-1-carbonyl)piperidin-4-yl)-1H-pyrazol-4-yl)methyl)amino)isoindoline-1,3-dione]	< 1 nM
O=C1CCC(N2C(=O)c3cccc(NCc4cnn(C5CCN(C6CCCC6)CC5)c4)c3C2=O)C(=O)N1 (centres unmarked) [Compound 130, 4-(((1-(1-cyclopentylpiperidin-4-yl)-1H-pyrazol-4-yl)methyl)amino)-2-(2,6-dioxopiperidin-3-yl)isoindoline-1,3-dione]	< 100 nM
O=C1CCC(N2C(=O)c3cccc(NCc4cnn(C5CCN(C(=O)c6ccccc6)CC5)c4)c3C2=O)C(=O)N1 (centres unmarked) [Compound 16, 4-(((1-(1-benzoylpiperidin-4-yl)-1H-pyrazol-4-yl)methyl)amino)-2-(2,6-dioxopiperidin-3-yl)isoindoline-1,3-dione]	< 100 nM
CC1(C(=O)N2CCC(n3ncc4c3CCC4Nc3cccc4c3C(=O)N(C3CCC(=O)NC3=O)C4=O)CC2)CCC1 (centres unmarked) [Compound 207, 2-(2,6-Dioxo-piperidin-3-yl)-4-{1-[1-(1-methyl-cyclobutanecarbonyl)-piperidin-4-yl]-1,4,5,6-tetrahydro-cyclopentapyrazol-4-ylamino}-isoindole-1,3-dione]	< 100 nM
CC1(C(=O)N2CCC(n3cc(CNc4cccc5c4C(=O)N(C4CCC(=O)NC4=O)C5=O)cn3)CC2)CC1(Cl)Cl (stereo in doubt) [Compound 182, 4-(((1-(1-((R)-2,2-Dichloro-1-methylcyclopropane-1-carbonyl)piperidin-4-yl)-1H-pyrazol-4-yl)methyl)amino)-2-(2,6-dioxopiperidin-3-yl)isoindoline-1,3-dione]	< 100 nM
COCCC(=O)N1CCC(n2cc(CNc3cccc4c3C(=O)N(C3CCC(=O)NC3=O)C4=O)cn2)CC1 (centres unmarked) [Compound 6, 2-(2,6-dioxopiperidin-3-yl)-4-(((1-(1-(3-methoxypropanyl)piperidin-4-yl)-1H-pyrazol-4-yl)methyl)amino)isoindoline-1,3-dione]	< 100 nM
O=C1CCC(N2C(=O)c3cccc(NCc4cnn(CC(F)(F)F)c4)c3C2=O)C(=O)N1 (centres unmarked) [Compound 153, 2-(2,6-dioxo-3-piperidyl)-4-[[1-(2,2,2-trifluoroethyl)pyrazol-4-yl]methylamino]isoindoline-1,3-dione]	< 100 nM
CC(C)(C)CC(=O)N1CCC(n2cc(CNc3cccc4c3C(=O)N(C3CCC(=O)NC3=O)C4=O)cn2)CC1 (centres unmarked) [Compound 12, 4-(((1-(1-(3,3-dimethylbutanoyl)piperidin-4-yl)-1H-pyrazol-4-yl)methyl)amino)-2-(2,6-dioxopiperidin-3-yl)isoindoline-1,3-dione]	< 100 nM
CC1(C(=O)N2CCC(C)(n3cc(CNc4cccc5c4C(=O)N(C4CCC(=O)NC4=O)C5=O)cn3)CC2)CCC1 (centres unmarked) [Compound 173, 2-(2,6-Dioxopiperidin-3-yl)-4-(((1-(4-methyl-1-(1-methylcyclobutane-1-carbonyl)piperidin-4-yl)-1H-pyrazol-4-yl)methyl)amino)isoindoline-1,3-dione]	< 100 nM
CC(C)(C(=O)N1CCC(n2cc(CNc3cccc4c3C(=O)N(C3CCC(=O)NC3=O)C4=O)cn2)CC1)C(F)(F)F (centres unmarked) [Compound 73, 2-(2,6-dioxopiperidin-3-yl)-4-(((1-(1-(3,3,3-trifluoro-2,2-dimethylpropanoyl)piperidin-4-yl)-1H-pyrazol-4-yl)methyl)amino)isoindoline-1,3-dione]	< 100 nM
O=C1CCC(N2C(=O)c3cccc(NCc4cnn(C5CCN(C(=O)Cc6ccc(-c7ccc(F)cc7)cc6)CC5)c4)c3C2=O)C(=O)N1 (centres unmarked) [Compound 106, 2-(2,6-dioxopiperidin-3-yl)-4-(((1-(1-(2-(4′-fluoro-[1,1′-biphenyl]-4-yl)acetyl)piperidin-4-yl)-1H-pyrazol-4-yl)methyl)amino)isoindoline-1,3-dione]	< 100 nM
C[C@@H](C(=O)N1CCC(n2cc(CNc3cccc4c3C(=O)N(C3CCC(=O)NC3=O)C4=O)cn2)CC1)c1ccccc1 (stereo partly drawn) [Compound 48, 2-(2,6-dioxopiperidin-3-yl)-4-(((1-(1-((R)-2-phenylpropanoyl)piperidin-4-yl)-1H-pyrazol-4-yl)methyl)amino)isoindoline-1,3-dione]	< 100 nM
O=C1CCC(N2C(=O)c3cccc(NCc4cnn(C5CCN(C(=O)CC67CC8CC(CC(C8)C6)C7)CC5)c4)c3C2=O)C(=O)N1 (centres unmarked) [Compound 47, 4-(((1-(1-(2-(adamantan-1-yl)acetyl)piperidin-4-yl)-1H-pyrazol-4-yl)methyl)amino)-2-(2,6-dioxopiperidin-3-yl)isoindoline-1,3-dione]	< 1 nM
CN(CCCn1cc(CNc2cccc3c2C(=O)N(C2CCC(=O)NC2=O)C3=O)cn1)C(=O)OC(C)(C)C (centres unmarked) [Compound 154, tert-butyl N-[3-[4-[[[2-(2,6-dioxo-3-piperidyl)-1,3-dioxo-isoindolin-4-yl]amino]methyl]pyrazol-1-yl]propyl]-N-methyl-carbamate]	< 100 nM
CC(C)CCC(=O)N1CCC(n2cc(CNc3cccc4c3C(=O)N(C3CCC(=O)NC3=O)C4=O)cn2)CC1 (centres unmarked) [Compound 23, 2-(2,6-dioxopiperidin-3-yl)-4-(((1-(1-(4-methylpentanoyl)piperidin-4-yl)-1H-pyrazol-4-yl)methyl)amino)isoindoline-1,3-dione]	< 1 nM
